Consider 27 compounds from patent publication US20110077237A1, “KINASE INHIBITORS” (VERTEX PHARMACEUTICALS INCORPORATED, priority 2007, published 2011).

The structures appear in SMILES notation. pKi: −log10 of the molar value. A value given as a limit tells only on which side of the number the result lay.

What all share (format): biochemical
The target in one assay is PKC theta (Homo sapiens, UniProt Q04759). The assay can be described thus: PKC Theta I coupled-enzyme (NADH absorbance) kinase assay. Conditions: 18 nM PKC theta, 240 μM ATP, 30° C., absorbance at 340 nm. Here is the method: An assay buffer solution was prepared which consisted of 100 mM HEPES (pH 7.5), 10 mM MgCl2, 25 mM NaCl, 0.1 mM EDTA and 0.01% Brij. […] To 60 μL of this enzyme buffer, in a 384 well plate, was added 2 μL of VRT stock solution in DMSO. The mixture was allowed to equilibrate for 10 mins at 30° C. […] Ki values were calculated from initial rate data by non-linear regression using the Prism software package (Prism 4.0a, Graphpad Software, San Diego, Calif.).

The target in a further assay is PKC delta kinase (Homo sapiens, UniProt Q05655). The assay can be described thus: PKC Delta coupled-enzyme kinase assay. Conditions: 46 nM PKC delta, 150 μM ATP, 30° C.; read-out: Ki PKC delta. The protocol: An assay buffer solution was prepared which consisted of 100 mM HEPES (pH 7.5), 10 mM MgCl2, 25 mM NaCl, 0.1 mM EDTA and 0.01% Brij. […] To 16 μL of this enzyme buffer, in a 384 well plate, was added 1 μL of VRT stock solution in DMSO. The mixture was allowed to equilibrate for 10 mins at 30° C. […] Ki values were calculated from initial rate data by non-linear regression using the Prism software package (Prism 4.0a, Graphpad Software, San Diego, Calif.).

The next assay concerns the target PKC alpha kinase (Homo sapiens, UniProt P17252). The assay can be described thus: PKC Alpha coupled-enzyme kinase assay. To be noted: 4.5 nM PKC alpha, 130 μM ATP, 30° C. Here is the method:
An assay buffer solution was prepared which consisted of 100 mM HEPES (pH 7.5), 10 mM MgCl2, 25 mM NaCl, 0.1 mM EDTA, 100 μM CaCl2 and 0.01% Brij. […] To 16 μL of this enzyme buffer, in a 384 well plate, was added 1 μL of VRT stock solution in DMSO. The mixture was allowed to equilibrate for 10 mins at 30° C. The enzyme reaction was initiated by the addition of 16 μL stock ATP solution prepared in assay buffer to a final assay concentration of 130 μM. Initial rate data was determined from the rate of change of absorbance at 340 nm (corresponding to stoichiometric consumption of NADH) using a Molecular Devices Spectramax plate reader (Sunnyvale, Calif.) over 15 mins at 30° C. For each Ki determination 12 data points covering the VRT concentration range of 0-20 μM were obtained in duplicate (DMSO stocks were prepared from an initial 10 mM VRT stock with subsequent 1:2 serial dilutions). Ki values were calculated from initial rate data by non-linear regression using the Prism software package (Prism 4.0a, Graphpad Software, San Diego, Calif.).

Chain of PKC delta kinase (Q05655 whole entry): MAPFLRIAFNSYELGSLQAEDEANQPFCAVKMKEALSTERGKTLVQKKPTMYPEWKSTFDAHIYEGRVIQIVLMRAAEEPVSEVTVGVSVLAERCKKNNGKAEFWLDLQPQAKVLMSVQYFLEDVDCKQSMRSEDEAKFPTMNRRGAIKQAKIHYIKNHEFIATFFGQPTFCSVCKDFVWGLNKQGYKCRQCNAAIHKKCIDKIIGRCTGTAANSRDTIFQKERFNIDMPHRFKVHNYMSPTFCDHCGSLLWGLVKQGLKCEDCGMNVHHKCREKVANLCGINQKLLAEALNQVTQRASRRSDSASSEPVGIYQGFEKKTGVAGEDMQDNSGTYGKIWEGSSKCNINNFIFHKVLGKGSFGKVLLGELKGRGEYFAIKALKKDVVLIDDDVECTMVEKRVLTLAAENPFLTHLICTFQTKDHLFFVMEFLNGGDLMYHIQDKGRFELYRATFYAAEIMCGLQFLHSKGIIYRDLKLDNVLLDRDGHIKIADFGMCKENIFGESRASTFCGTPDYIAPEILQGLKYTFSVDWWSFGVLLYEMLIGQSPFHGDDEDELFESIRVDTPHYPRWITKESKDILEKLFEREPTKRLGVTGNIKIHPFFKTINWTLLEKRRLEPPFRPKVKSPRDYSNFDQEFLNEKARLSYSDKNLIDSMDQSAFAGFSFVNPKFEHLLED
Chain of PKC theta (Q04759 whole entry): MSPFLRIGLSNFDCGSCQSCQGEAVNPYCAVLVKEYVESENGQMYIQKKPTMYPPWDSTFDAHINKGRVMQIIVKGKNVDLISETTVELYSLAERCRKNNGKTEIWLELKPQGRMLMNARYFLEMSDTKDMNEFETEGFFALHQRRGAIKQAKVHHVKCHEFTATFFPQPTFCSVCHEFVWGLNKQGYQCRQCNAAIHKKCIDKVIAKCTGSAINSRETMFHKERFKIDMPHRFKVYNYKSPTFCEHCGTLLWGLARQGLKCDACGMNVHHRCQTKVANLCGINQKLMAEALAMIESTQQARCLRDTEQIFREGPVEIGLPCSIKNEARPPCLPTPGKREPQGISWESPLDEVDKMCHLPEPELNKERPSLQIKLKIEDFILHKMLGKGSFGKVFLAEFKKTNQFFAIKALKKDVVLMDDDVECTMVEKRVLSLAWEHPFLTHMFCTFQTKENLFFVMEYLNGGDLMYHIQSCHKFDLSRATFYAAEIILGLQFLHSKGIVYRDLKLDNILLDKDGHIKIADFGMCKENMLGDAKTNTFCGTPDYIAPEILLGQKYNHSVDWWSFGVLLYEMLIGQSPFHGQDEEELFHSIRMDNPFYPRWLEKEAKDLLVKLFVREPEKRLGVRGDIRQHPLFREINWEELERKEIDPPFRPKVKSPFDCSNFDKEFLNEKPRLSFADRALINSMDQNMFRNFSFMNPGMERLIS

For the compound `Nc1ncccc1C(=O)c1cccc(N2CCCN(Cc3ccccc3)CC2)n1` [compound 160], the pKi on PKC theta is 5.55 to 6.30.
At PKC theta, `Nc1ncc(Br)cc1C(=O)c1cccc(N2CC[C@H](O)C2)n1` [compound 123] had a pKi of 5.55 to 6.30.
The compound `C[C@@H]1CNC[C@H](C)N1c1cccc(C(=O)c2cccnc2N)n1` [compound 234] showed a pKi at PKC theta of 5.55 to 6.30.
The compound `Nc1ncccc1C(=O)c1cccc(N2CCC(NC3CC3)CC2)n1` [compound 148] showed a pKi on PKC theta of 5.55 to 6.30.
With `Nc1ncc(-c2cccnc2)cc1C(=O)c1cccc(N2CCNC(c3ccccc3)C2)n1` (centres unmarked) [compound 275], the pKi at PKC theta was 5.55 to 6.30.
In turn, `CN(Cc1ccccc1)C(=O)c1ccc(C(=O)c2cccnc2N)s1` [compound 103] showed a pKi at PKC theta of 5.55 to 6.30.
Turning to `Nc1ncc(Br)cc1C(=O)c1cccc(NCCCN2CCCC2)n1` [compound 177], at PKC theta, the pKi is 5.55 to 6.30.
`Nc1ncc(-c2cc3ccccc3[nH]2)cc1C(=O)c1cccc(N2CCCNCC2)n1` [compound 168]: on PKC theta, the pKi is 5.55 to 6.30.
Compound `Nc1ncccc1C(=O)c1cccc(N2CCCN(C(=O)C3CCCCC3)CC2)n1` [compound 38] showed a pKi at PKC theta of 5.55 to 6.30.
Still for that read-out and setting: in the case of `Nc1ncc(-c2ccccc2CO)cc1C(=O)c1cccc(N2CCNC(c3ccccc3)C2)n1` (centres unmarked) [compound 281] it was 5.55 to 6.30.
Turning to `CC(=O)c1ccc(N2CCN[C@@H](CC(C)C)C2)nc1C(=O)c1cccnc1N` [compound 351], the values for the pKi at PKC delta kinase and on PKC alpha kinase were 5.55 to 6.30 and < 5.55, respectively.
Take `Nc1ncccc1C(=O)c1nc(NCC2CCCNC2)ccc1C(F)(F)F` (centres unmarked) [compound 387]: the pKi on PKC delta kinase is 6.30 to 7.30; on PKC alpha kinase it was 5.55 to 6.30.
With `C=Cc1cnc(N)c(C(=O)c2nc(N3CCNC(c4ccccc4)C3)ccc2Cl)c1` (centres unmarked) [compound 332], the pKi on PKC delta kinase is 6.30 to 7.30; on PKC alpha kinase, > 7.30.
Turning to `C=Cc1cnc(N)c(C(=O)c2nc(N3CCNC(c4ccccc4)C3)ccc2C(F)(F)F)c1` (centres unmarked) [compound 328], the pKi at PKC delta kinase was 6.30 to 7.30; at PKC alpha kinase, > 7.30.
For `Nc1ncccc1C(=O)c1nc(N2CCNC(c3ccccc3)C2)ccc1OC(F)F` (centres unmarked) [compound 360] the same measures were 6.30 to 7.30 and 5.55 to 6.30.
Turning to `CC(C)[C@H](N)CNc1ccc(C(F)(F)F)c(C(=O)c2cccnc2N)n1` [compound 395], the pKi at PKC delta kinase and on PKC alpha kinase was 5.55 to 6.30 each time.
In the case of `CC(C)C[C@H]1CN(c2ccnc(C(=O)c3cccnc3N)n2)CCN1` [compound 345], the pKi on PKC delta kinase was < 5.55; on PKC alpha kinase, 5.55 to 6.30.
Take `Nc1ncccc1C(=O)c1nccc(N2CCNCC2)n1` [compound 344]: the pKi on PKC delta kinase and at PKC alpha kinase was < 5.55 in each case.
For `COc1ccc(C2CN(c3cccc(C(=O)c4cccnc4N)n3)CCN2)cc1` (centres unmarked) [compound 310], the pKi at PKC delta kinase is 6.30 to 7.30; at PKC alpha kinase it was 5.55 to 6.30.
For `C=Cc1cnc(N)c(C(=O)c2cccc(N3CCNC(c4ccccc4)C3)n2)c1` (centres unmarked) [compound 241], the pKi was 6.30 to 7.30 at PKC delta kinase and > 7.30 at PKC alpha kinase.
For `Nc1ncccc1C(=O)c1cccc(N2CCCN(C(=O)c3sccc3Cl)CC2)n1` [compound 92], the pKi on PKC delta kinase and at PKC alpha kinase was 5.55 to 6.30 each time.
Consider `Nc1ncccc1C(=O)c1cncc(N2CCCNCC2)n1` [compound 157], for which the pKi on PKC delta kinase is 6.30 to 7.30; on PKC alpha kinase it was 5.55 to 6.30.
Consider `Nc1ncccc1C(=O)c1cccc(N2CCNC(c3ccc(Cl)cc3)C2)n1` (centres unmarked) [compound 307], for which the pKi at PKC delta kinase and at PKC alpha kinase was 5.55 to 6.30 throughout.
Consider `Nc1ncccc1C(=O)c1nc(NCC2CCNC2)ccc1C(F)(F)F` (centres unmarked) [compound 377], for which the pKi on PKC delta kinase is 6.30 to 7.30; at PKC alpha kinase it was 5.55 to 6.30.
For the compound `Nc1ncccc1C(=O)c1cncc(N2CCC(N)CC2)n1` [compound 161], the pKi at PKC delta kinase and at PKC alpha kinase was 5.55 to 6.30 throughout.
With `Cc1ccc(C2CN(c3cccc(C(=O)c4cccnc4N)n3)CCN2)cc1` (centres unmarked) [compound 336], the pKi on PKC delta kinase and at PKC alpha kinase was 5.55 to 6.30 in each case.
As for `CC[C@@H]1CNCCN1c1cccc(C(=O)c2cccnc2N)n1` [compound 243], the pKi was 6.30 to 7.30 at PKC delta kinase and 5.55 to 6.30 at PKC alpha kinase.
